In this experiment the target is T1, IDO1 (Mus musculus, UniProt P28776).
T1 construct: LPS-injected mice have been used as models to study IDO1 expression and activity; from tissue; host or cells: whole animal: LPS-injected C57BL/6 mice, with IDO1 induced in a variety of tissues
T1 sequence (P28776 whole entry): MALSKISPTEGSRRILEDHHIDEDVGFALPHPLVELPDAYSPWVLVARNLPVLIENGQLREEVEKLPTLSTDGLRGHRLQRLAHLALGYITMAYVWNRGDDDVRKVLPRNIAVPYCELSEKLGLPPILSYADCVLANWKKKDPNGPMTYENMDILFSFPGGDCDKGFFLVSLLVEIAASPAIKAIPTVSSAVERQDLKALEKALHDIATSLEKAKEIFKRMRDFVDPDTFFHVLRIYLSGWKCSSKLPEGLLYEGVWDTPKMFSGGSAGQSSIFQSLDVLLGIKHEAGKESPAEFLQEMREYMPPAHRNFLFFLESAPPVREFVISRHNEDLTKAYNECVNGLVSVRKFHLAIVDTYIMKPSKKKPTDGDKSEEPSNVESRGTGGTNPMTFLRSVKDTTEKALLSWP
The experiment in a line: Reduction of LPS induced plasma kynurenine levels in C57BL/6 mice. Particulars: LPS-injected (6 mg/kg i.p.) C57BL/6 mice; test compound given orally 20 h after LPS; plasma KYN by LC/MS/MS at 2 hr post dosing. It counts as in vivo. The text has this:
Inflammatory mediators such as Lipopolysaccharides (LPS) and Interferon-gamma (IFNg) are well-established inducers of IDO1 expression. Intraperitoneal (i.p.) administration of bacterial lipopolysaccharide (LPS) induces peak IDO1 activity in a variety of tissues within one day after LPS administration resulting in the production and release of kynurenine into the bloodstream (Takikawa, O., et al. (1986) J. Biol. Chem. 261:3648-53; Yoshida, H., et al. (1998) Cell 94:739-750). LPS-injected mice have been used as models to study IDO1 expression and activity. Three—eight fed C57 BL/6 mice (age 7-8 weeks, weight: about 20-22 g) were injected intrapritoneally with bacterial lipopolysaccharide (LPS; 26:B6 Sigma) at a concentration of 6 mg/kg. Animals were then housed in normal condition for 20 hours at which time the test compounds were administered orally in formulation containing 30% polyethylene glycol 400 (PEG 400) and 20% propylene glycol (PG) in normal saline (Dosing volume 10 mL/kg). Blood was drawn through retro-orbital bleeds into a tube containing 100 mM EDTA for plasma collection at the following times: just prior to LPS treatment, just prior to test compound dosing (0 hr) and then at 2 hr, 4 hr, 6 hr, 8 hr, 24 hr and 48 hr post-test compound dosing. Plasma KYN and drug levels were determined by LC/MS/MS using an API4000 mass spectrometer (Applied Biosystems) coupled to a Shimadzu Prominence LC system fitted with a C18 column.
The compounds of the invention decrease kynurenine levels. The compounds of the invention trigger a decrease of kynurenine levels at 2 hrs of at least 5%.
For `N#C/C(=N\c1ccc(F)c(Cl)c1)c1ccnc(C#N)c1O` [Compound 02, N-(3-Chloro-4-fluorophenyl)-2-cyano-3-hydroxyIsonicotinimidoyl nitrile], the “percentage of decrease of kynurenine level at two hours” value (“percentage of decrease … at two hours” below) came out at 45%. Turning to `N#C/C(=N\c1ccc(F)c(Cl)c1)c1ccnc(-c2ccncc2)c1O` [Compound 04, N-(3-Chloro-4-fluorophenyl)-3-hydroxy-[2,4′-bipyridine]-4-carbimidoyl nitrile], the “percentage of decrease … at two hours” value was found to be 77%.

Regarding `N#C/C(=N\c1ccc(F)c(Cl)c1)c1ccnc(Br)c1O` [Compound 19, 2-Bromo-N-(3-chloro-4-fluorophenyl)-3-hydroxyIsonicotinimidoyl nitrile], the “percentage of decrease … at two hours” value came to 38%. With `N#C/C(=N\c1ccc(F)c(Cl)c1)c1ccnc(-c2ccccc2)c1O` [Compound 13, N-(3-Chloro-4-fluorophenyl)-3-hydroxy-2-phenylisonicotinimidoyl nitrile], the “percentage of decrease … at two hours” value was 46%. In the case of `N#C/C(=N\c1cccc(F)c1)c1ccnc(-c2ccncc2)c1O` [Compound 41, N-(3-Fluorophenyl)-3-hydroxy-[2,4′-bipyridine]-4-carbimidoyl nitrile], the “percentage of decrease … at two hours” value was 81%.

On to `Cc1cc(-c2nccc(/C(C#N)=N/c3cccc(Cl)c3)c2O)ccn1` [Compound 23, N-(3-Chlorophenyl)-3-hydroxy-2′-methyl-[2,4′-bipyridine]-4-carbimidoyl nitrile], for which the “percentage of decrease … at two hours” value was found to be 79%. As for `Cc1cc(-c2nccc(/C(C#N)=N/c3ccc(F)c(Cl)c3)c2O)cc(C)n1` [Compound 16], the “percentage of decrease … at two hours” value is 36%. For `CNC(=O)c1cc(-c2nccc(/C(C#N)=N/c3cccc(Cl)c3)c2O)ccn1` [Compound 30, N-(3-Chlorophenyl)-3-hydroxy-2′-(methylcarbamoyl)-[2,4′-bipyridine]-4-carbimidoyl nitrile], the “percentage of decrease … at two hours” value was 64%. As to `Cc1cc(-c2nccc(/C(C#N)=N/c3ccc(F)c(Cl)c3)c2O)ccn1` [Compound 09, N-(3-Chloro-4-fluorophenyl)-3-hydroxy-2′-methyl-[2,4′-bipyridine]-4-carbimidoyl nitrile], the “percentage of decrease … at two hours” value came out at 71%. Regarding `N#C/C(=N\c1ccc(F)c(Cl)c1)c1ccnc(-c2ccc3c(c2)OCO3)c1O` [Compound 17, 2-(Benzo[d][1,3]dioxol-5-yl)-N-(3-chloro-4-fluorophenyl)-3-hydroxyisonicotinimidoyl nitrile], the “percentage of decrease … at two hours” value amounted to 10%. For the molecule `Cc1nccc(/C(C#N)=N/c2ccc(F)c(Cl)c2)c1O` [Compound 18, N-(3-Chloro-4-fluorophenyl)-3-hydroxy-2-methylisonicotinimidoyl nitrile], the “percentage of decrease … at two hours” value was 53%. With `Cc1cc(-c2nccc(/C(C#N)=N/c3ccccc3)c2O)ccn1` [Compound 24, 3-Hydroxy-2′-methyl-N-phenyl-[2,4′-bipyridine]-4-carbimidoyl nitrile], the “percentage of decrease … at two hours” value came to 81%. On to `Cc1cc(-c2nccc(/C(C#N)=N/c3ccc(F)c(F)c3)c2O)ccn1` [Compound 10, N-(3,4-Difluorophenyl)-3-hydroxy-2′-methyl-[2,4′-bipyridine]-4-carbimidoyl nitrile], for which the “percentage of decrease … at two hours” value turned out to be 79%. The result for `Cc1cc(-c2nccc(/C(C#N)=N/c3ccccc3Cl)c2O)ccn1` [Compound 25, N-(2-Chlorophenyl)-3-hydroxy-2′-methyl-[2,4′-bipyridine]-4-carbimidoyl nitrile] reads 37%; that for `N#C/C(=N\c1ccc(F)c(Cl)c1)c1ccnc(-c2cccnc2)c1O` [Compound 44, N-(3-Chloro-4-fluorophenyl)-3-hydroxy-[2,3′-bipyridine]-4-carbimidoyl nitrile], 77%. In the case of `N#C/C(=N\c1ccc(F)c(F)c1)c1ccncc1O` [Compound 36, N-(3,4-Difluorophenyl)-3-hydroxyisonicotinimidoyl nitrile], the “percentage of decrease … at two hours” value is recorded as 79%. Take `Cc1cc(-c2nccc(/C(C#N)=N/c3cccc(F)c3)c2O)ccn1` [Compound 29, N-(3-Fluorophenyl)-3-hydroxy-2′-methyl-[2,4′-bipyridine]-4-carbimidoyl nitrile]: the “percentage of decrease … at two hours” value was 75%. For `N#C/C(=N\c1ccc(F)c(C(F)(F)F)c1)c1ccnc(C#N)c1O` [Compound 03, 2-Cyano-N-(4-fluoro-3-(trifluoromethyl)phenyl)-3-hydroxyisonicotinimidoyl nitrile] the value was 25%; for `N#C/C(=N\c1ccc(F)cc1)c1ccnc(-c2ccnc(F)c2)c1O` [Compound 43, 2′-Fluoro-N-(4-fluorophenyl)-3-hydroxy-[2,4′-bipyridine]-4-carbimidoyl nitrile], 69%. Take `N#C/C(=N\c1ccc(F)c(C(F)(F)F)c1)c1ccnc(-c2ccncc2)c1O` [Compound 40, N-(4-Fluoro-3-(trifluoromethyl)phenyl)-3-hydroxy-[2,4′-bipyridine]-4-carbimidoyl nitrile]: the “percentage of decrease … at two hours” value is on record as 77%. `N#C/C(=N\c1ccc(F)c(Cl)c1)c1ccncc1O` [Compound 01, N-(3-Chloro-4-fluorophenyl)-3-hydroxyisonicotinimidoyl nitrile]: the “percentage of decrease … at two hours” value was 73%. Take `N#C/C(=N\c1cccc(C(F)(F)F)c1)c1ccncc1O` [Compound 34, 3-Hydroxy-N-(3-(trifluoromethyl)phenyl)isonicotinimidoyl nitrile]: the “percentage of decrease … at two hours” value worked out at 67%. As for `Cc1cc(-c2nccc(/C(C#N)=N/c3ccc(F)cc3F)c2O)ccn1` [Compound 27, N-(2,4-Difluorophenyl)-3-hydroxy-2′-methyl-[2,4′-bipyridine]-4-carbimidoyl nitrile], the “percentage of decrease … at two hours” value came out at 64%.

As to `CNC(=O)c1cc(-c2nccc(/C(C#N)=N/c3ccc(F)cc3)c2O)ccn1` [Compound 32, N-(4-Fluorophenyl)-3-hydroxy-2′-(methylcarbamoyl)-[2,4′-bipyridine]-4-carbimidoyl nitrile], the “percentage of decrease … at two hours” value came out at 67%.

As for `Cc1cc(-c2nccc(/C(C#N)=N/c3ccc(F)c(C(F)(F)F)c3)c2O)ccn1` [Compound 39, N-(4-Fluoro-3-(trifluoromethyl)phenyl)-3-hydroxy-2′-methyl-[2,4′-bipyridine]-4-carbimidoyl nitrile], the “percentage of decrease … at two hours” value came to 67%. `N#C/C(=N\c1ccc(F)c(Cl)c1)c1ccnc(-c2cc(F)nc(F)c2)c1O` [Compound 21, N-(3-Chloro-4-fluorophenyl)-2′,6′-difluoro-3-hydroxy-[2,4′-bipyridine]-4-carbimidoyl nitrile]: the “percentage of decrease … at two hours” value is on record as 21%. `N#C/C(=N\c1cccc(F)c1)c1ccncc1O` [Compound 35, N-(3-Fluorophenyl)-3-hydroxyisonIcotinimidoyl nitrile]: the “percentage of decrease … at two hours” value is listed as 74%.

Regarding `N#C/C(=N\c1cccc(Cl)c1)c1ccncc1O` [Compound 33, N-(3-Chlorophenyl)-3-hydroxyisonicotinimidoyl nitrile], the “percentage of decrease … at two hours” value was found to be 80%.

With `N#C/C(=N\c1cccc(Cl)c1)c1ccnc(-c2ccncc2)c1O` [Compound 22, N-(3-Chlorophenyl)-3-hydroxy-[2,4′-bipyridine]-4-carbimidoyl nitrile], the “percentage of decrease … at two hours” value came out at 87%. On to `Cc1cc(-c2nccc(/C(C#N)=N/c3cccc(C(F)(F)F)c3)c2O)ccn1` [Compound 38, 3-Hydroxy-2′-methyl-N-(3-(trifluoromethyl)phenyl)-[2,4′-bipyridine]-4-carbimidoyl nitrile], for which the “percentage of decrease … at two hours” value came to 69%. Consider `COc1cc(/C(C#N)=N/c2ccc(F)c(Cl)c2)c(O)cn1` [Compound 14, N-(3-Chloro-4-fluorophenyl)-5-hydroxy-2-methoxyisonicotinimidoyl nitrile], for which the “percentage of decrease … at two hours” value was found to be 18%. On to `N#C/C(=N\c1cccc(C(F)(F)F)c1)c1ccnc(-c2ccccc2)c1O` [Compound 42, 3-Hydroxy-2-phenyl-N-(3-(trifluoromethyl)phenyl)isonicotinimidoyl nitrile], for which the “percentage of decrease … at two hours” value is on record as 32%. Turning to `CNC(=O)c1cc(-c2nccc(/C(C#N)=N/c3ccc(F)c(C(F)(F)F)c3)c2O)ccn1` [Compound 31, N-(4-Fluoro-3-(trifluoromethyl)phenyl)-3-hydroxy-2′-(methylcarbamoyl)-[2,4′-bipyridine]-4-carbimidoyl nitrile], the “percentage of decrease … at two hours” value worked out at 43%.
